Measured values from patent US10633547B2, “Method for reducing microbial attack of industrial products” (Thor GmbH, priority 2016, dated 2020).

Columns and labels:
[1] = system: newly introduced microorganisms; test: shelf life of dispersion paint after post-preservation; conditions: 50 ppm 2-methyl-1,2-benzisothiazolin-3-one and 10 ppm zinc oxide added after decomposition of CMIT by cysteine
Description: The paint produced in this manner was now free of microorganisms through the use of the effective broad-spectrum biocide 5-chloro-2-methylisothiazolin-3-one, but susceptible to newly introduced microorganisms, which can infiltrate the paint during storage, due to the decomposition of the biocide by cysteine.
In order to protect the paint from such a microbial attack during storage, 50 ppm 2-methyl-1,2-benzisothiazolin-3-one and 10 ppm zinc oxide, based on the dispersion paint, were added to the dispersion paint for post-preservation.

[2] = decomposition of 2-methylisothiazolin-3-one in aqueous dispersion paint using sodium thiosulfate; format: physicochemical
Text: However, it is disadvantageous that, according to the described method, said isothiazolinones, particularly MIT, are not quantitatively and/or irreversibly destroyed, as a result of which they are still contained in the products and reaction products and still can cause problems for people prone to allergic reactions, and/or cause contact dermatitis or aerogenic contact dermatitis in highly sensitive people.

[3] = system: microorganisms introduced by the individual components of the paint; test: microbiological testing of dispersion paint preserved with 5-chloro-2-methylisothiazolin-3-one; format: cell-based; conditions: 20 ppm 5-chloro-2-methylisothiazolin-3-one with <1 wt % 2-methylisothiazolin-3-one; water-based dispersion paint; growth detectable in individual components
Description: 20 ppm 5-chloro-2-methylisothiazolin-3-one, with a content of 2-methylisothiazolin-3-one of <1 wt %, was added to a preservative-free styrene acrylate dispersion. The styrene acrylate dispersion preserved in this manner was then used to produce a water-based dispersion paint. The paint produced had the following composition: • 25.7 wt % water • 0.2 wt % acrylate-based wetting and dispersion agents • 0.2 wt % mineral oil-based defoamer • 2.0 wt % water softener (sodium polyphosphate) • 0.2 wt % ammonia • 4.0 wt % titanium oxide (pigment) • 51.0 wt % calcium carbonate (filler) • 5.0 wt % talcum (filler) • 0.4 wt % cellulose ether • 2.0 wt % organic solvent for lowering the minimum film-forming temperature • 9.0 wt % of the styrene acrylate dispersion preserved with 20 ppm 5-chloro-2-methylisothiazolin-3-one • 20 ppm 5-chloro-2-methylisothiazolin-3-one, with a content of 2-methylisothiazolin-3-one of <1 wt %

[4] = decomposition of 5-chloro-2-methylisothiazolin-3-one in dispersion paint by cysteine, HPLC; format: physicochemical; conditions: 3 hours after adding 50 ppm cysteine, based on the dispersion paint
Text: In order to produce a paint, which is harmless for allergy suffers with respect to the 5-chloro-2-methylisothiazolin-3-one and 2-methylisothiazolin-3-one, from the dispersion paint, which contained significant quantities of 5-chloro-2-methylisothiazolin-3-one, these isothiazolin-3-ones were decomposed by adding 50 ppm cysteine, based on the dispersion paint.

Cn1sc2ccccc2c1=O [2-methyl-1,2-benzisothiazolin-3-one]
shelf life of the paint [1]: at least 6 months

Cn1sccc1=O [2-methylisothiazolin-3-one]
destruction of 2-methylisothiazolin-3-one using sodium thiosulfate [2]: could not be quantitatively or irreversibly destroyed

Cn1sc(Cl)cc1=O [5-chloro-2-methylisothiazolin-3-one]
microbial growth in the dispersion paint [3]: no microbial growth was found | 5-chloro-2-methylisothiazolin-3-one detectable in the dispersion paint by HPLC [4]: no more 5-chloro-2-methylisothiazolin-3-one was detectable
